Measured values: patent US8092790B2, “Methods of making formulations to affect insect behavior and/or bird behavior” (Bug Buster, Ltd., priority 2003, dated 2012)

Legend:
[1] = 25° C.; cited from earlier work
[2] = test system: bees (Panurgus banksianus, P. calacaratus); conditions: in vivo; cited from earlier work
mosquito = conditions: in vivo; cited from earlier work
bees (Apidae, Psithyrus) = conditions: in vivo; cited from earlier work
[3] = test system: Deraeocoris brevis (Uhler); conditions: on sticky cards; cited from earlier work
[4] = test system: Orius tristicolor (White); conditions: on sticky cards; cited from earlier work
[5] = test system: sunflower seed weevils (Smicronyx spp.); test: Comparison to DEET product, drawing weevils out of sunflower heads; assay type: in vivo
From the text: DEET is often used by entomologists in standard procedures to draw sunflower seed weevils (Smicronyx spp.) out of the heads of sunflowers. In this trial, DEET was provided in the commercially available product DEEP WOODS OFF™ repellent (S.C. Johnson and Son's, Racine, Wis.), which has approximately 28.5% active ingredient; 1.5% other isomers and 70% inert ingredients. Forty-two flowers were randomly selected from interiors of three fields. One-half of the flowers were sprayed with the DEET containing repellent while the remaining flowers were sprayed with the exemplary compound at a concentration of approximately 0.00312% methyl anthranilate, which was combined with long chained fatty acids. The number of sunflower weevils was recorded.

[6] = test system: mosquito (Aedes aegyptis); test: Mosquito repellency on human subject; assay type: in vivo; conditions: second trial; methyl anthranilate 0.00312%, DEET 0.24%; untreated head covered within one minute
From the text: In these trials, DEET was provided in the commercially available product DEEP WOODS OFF™ repellent (S.C. Johnson & Son, Inc., Racine, Wis.), which has approximately 28.5% active ingredient; 1.5% other isomers and 70% inert ingredients.
In a first trial, a human subject was exposed to a mosquito (Aedes aegyptis) rich environment without application of the exemplary compound or DEET. Within less than one minute the subject was covered with the insects. In a second trial, the subject sprayed one unclothed arm with the exemplary compound at a rate of 0.00312% and the other unclothed arm with DEET at a concentration of 0.24%. The subject's head remained untreated. Upon returning to the test area, the subject's head was covered with the insects within one minute. […] In a third trial the subject, after removing the DEET from his/her body, reapplied the exemplary compound to unclothed arms, head and neck before returning to the test area. The subject returned to and remained in the test area for more than one hour without any of the insects landing on his/her arms, hands and head while numerous insects were observed on the clothed portions of his/her anatomy.

[7] = test system: seed weevil (Smicronyx spp.); test: Comparison to 24% DEET on sunflower seed heads; assay type: in vivo; conditions: composition with 0.006% methyl anthranilate; DEET as 24% solution
From the text: An exemplary composition was compared to N,N-Diethyl-m-toluamide (DEET). The exemplary composition included an exemplary compound, methyl anthranilate (e.g., BIRDSHIELD™ at 0.006% methyl anthranilate), and an insecticide, esfenvalerate (e.g., ASANA™). A 24% DEET solution is often used in a standard evaluation process by entomologists for evaluating seed weevil (Smicronyx spp.) infestations.

sand fly = conditions: in vivo; cited from earlier work
house fly = conditions: in vivo; cited from earlier work
Aenictus = conditions: in vivo; cited from earlier work
[8] = test system: green lacewing (Chrysopa nigricornis Bermeister); conditions: in vivo; cited from earlier work
bees (Apis mellifera L.) = conditions: in small groups; cited from earlier work
birds = conditions: in vivo; cited from earlier work

In the case of `CC(C)C(C(=O)OC(C#N)c1cccc(Oc2ccccc2)c1)c1ccc(Cl)cc1` (single isomer, unassigned; (+)) [Esfenvalerate, (+)Alpha-cyano-3-phenoxybenzyl-(+)-alpha-(4-chlorophenyl)isovalerate], the water solubility [1] is listed as under 0.3 µg/mL.
For `CCCCCCCO` [1-heptanol], the “effect on behavior of bees” value [2] is listed as “affect behavior of bees”.
In the case of `OCCc1ccccc1` [2-phenyl-ethanol], the “effect on behavior of bees” value [2] is given as “affect behavior of bees”.
In the case of `CCCCCCCCCC(C)OC(C)=O` (centres unmarked) [2-undecyl acetate], the effect on mosquito (mosquito) is listed as “mosquito attractant”.
In the case of `CC(C)=CCCC(C)CCO` (centres unmarked) [3,7-dimethyl-6-octen-1-ol], the “effect on behavior of bees” value (bees (Apidae, Psithyrus)) is listed as “act as a territory marker”.
For `CC/C=C/CCOC(C)=O` [(E)-3-hexenyl acetate], the “attraction of Deraeocoris brevis” value [3] is given as “may be attracted” and the “attraction of Orius tristicolor” value [4] is given as “may be attracted”.
In the case of `CCN(CC)C(=O)c1cccc(C)c1` [DEET, N,N-Diethyl-m-toluamide, reference compound], the “Number of insects, Mean” value ([5]; Field No. 1) is reported as 4.4, the “Number of insects, Total” value ([5]; Field No. 1) is reported as 44 and the “Number of insects, Mean” value ([5]; Field No. 2) is reported as 12. For the same molecule, the “Number of insects, Total” value ([5]; Field No. 2) was 37, the “Number of insects, Mean” value ([5]; Field No. 3) was 10.3 and the “Number of insects, Total” value ([5]; Field No. 3) was 86. The water solubility [1] was “approximately 912 mg/L”, the “mosquitoes on treated unclothed arm” value [6] was “No mosquitoes were found” and the “insects observed in sprayed sunflower seed heads” value [7] was “No insects were observed”.
In the case of `CC1=CCC(C(C)(C)O)CC1` (stereo not drawn) [alpha-terpineol], the “effect on sand fly” value (sand fly) is listed as “sand fly attractant”.
For `CC=CC(C)C(=O)OCC` (centres unmarked) [ethyl ester of 2-methyl-3-pentenoic acid], the “effect on house fly” value (house fly) is given as “house fly attractant”.
For `CC(C)=CCC/C(C)=C/C=O` [geranial], the “effect on behavior of bees” value [2] is listed as “affect behavior of bees”.
In the case of `CC(C)=CCC/C(C)=C/CO` [geraniol, 3,7-dimethyl-2,6-octadien-I-ol], the “effect on behavior of bees” value [2] is listed as “affect behavior of bees”.
For `CC(C)=CCC/C(C)=C/C(=O)O` [geranolic acid], the “effect on behavior of bees” value [2] is listed as “affect behavior of bees”.
In the case of `COC(=O)c1cccnc1` [methyl nicotinate], the “semiochemical function for Aenictus” value (Aenictus) is given as “trail semiochemicals”.
In the case of `COC(=O)c1ccccc1O` [methyl salicylate], the “attraction of green lacewing” value [8] is listed as “attract”.
In the case of `CC(C)=CCC/C(C)=C\C=O` [neral], the “effect on behavior of bees” value [2] is given as “affect behavior of bees”.
For `CC(C)=CCC/C(C)=C\CO` [nerol], the “effect on behavior of bees” value [2] is given as “affect behavior of bees”.
In the case of `CC(C)=CCC/C(C)=C\C(=O)O` [nerolicacid], the “effect on behavior of bees” value [2] is listed as “affect behavior of bees”.
For `CC(=O)c1ccccc1N` [o-aminoacetophone, o-aminoacetophenone], the effect on bees (bees (Apis mellifera L.)) is listed as “repels bees” and the repellency to birds (birds) is listed as “exhibit repellency to birds”.
For bisabolene, the “effect on house fly” value (house fly) is given as “house fly repellent”.
